This note sets out measurements from US11339120B2, “Phenyl derivatives as cannabinoid receptor 2 agonists” (priority 2015, dated 2022).

One may read the EC50 as the midpoint of the concentration-response curve.

Assay [1] concerns the target T1, human CB2 receptors (Homo sapiens, UniProt P34972).
T1 construct: expressed in transfected cells; host or cells: CHO cells
Kind of assay: functional cAMP assay, CHO cells expressing human CB2. It counts as cell-based. How it is done: (§1) CHO cells expressing human CB1 or CB2 receptors are seeded 17-24 hours prior to the experiment 50.000 cells per well in a black 96 well plate with flat clear bottom (Corning Costar #3904) in DMEM (Invitrogen No. 31331), 1×HT supplement, with 10% fetal calf serum and incubated at 5% CO2 and 37° C. in a humidified incubator. The growth medium was exchanged with Krebs Ringer Bicarbonate buffer with 1 mM IBMX and incubated at 30° C. for 30 min. Compounds were added to a final assay volume of 100 μl and incubated for 30 min at 30° C. Using the cAMP-Nano-TRF detection kit the assay (Roche Diagnostics) was stopped by the addition of 50 μl lysis reagent (Tris, NaCl, 1.5% Triton X100, 2.5% NP40, 10% NaN3) and 50 μl detection solutions (20 μM mAb Alexa700-cAMP 1:1, and 48 μM Ruthenium-2-AHA-cAMP) and shaken for 2 h at room temperature. The time-resolved energy transfer is measured by a TRF reader (Evotec Technologies GmbH), equipped with a ND:YAG laser as excitation source. The plate is measured twice with the excitation at 355 nm and at the emission with a delay of 100 ns and a gate of 100 ns, total exposure time 10 s at 730 (bandwidth 30 nm) or 645 nm (bandwidth 75 nm), respectively. The FRET signal is calculated as follows: FRET=T730-Alexa730-P(T645-B645) with P=Ru730-B730/Ru645-B645, where T730 is the test well measured at 730 nM, T645 is the test well measured at 645 nm, B730 and B645 are the buffer controls at 730 nm and 645 nm, respectively. cAMP content is determined from the function of a standard curve spanning from 10 μM to 0.13 nM cAMP.
(§2) EC50 values were determined using Activity Base analysis (ID Business Solution, Limited). The EC50 values for a wide range of cannabinoid agonists generated from this assay were in agreement with the values published in the scientific literature.
In general terms: Changes in cAMP serve as a functional read-out for many G protein-coupled receptors.

Assay [2] addresses T2, human CB1 receptors (Homo sapiens, UniProt P21554).
T2 construct: expressed in transfected cells; host or cells: CHO cells
Kind of assay: functional cAMP assay, CHO cells expressing human CB1. It counts as cell-based. How it is done: as §1, §2

The mark [3] stands for this setting: functional cAMP assay, CHO cells expressing human CB2, read-out: Human CB2 EC50.

Read-outs that look alike come from different tables or passages of the source.

T1 sequence (P34972 whole entry): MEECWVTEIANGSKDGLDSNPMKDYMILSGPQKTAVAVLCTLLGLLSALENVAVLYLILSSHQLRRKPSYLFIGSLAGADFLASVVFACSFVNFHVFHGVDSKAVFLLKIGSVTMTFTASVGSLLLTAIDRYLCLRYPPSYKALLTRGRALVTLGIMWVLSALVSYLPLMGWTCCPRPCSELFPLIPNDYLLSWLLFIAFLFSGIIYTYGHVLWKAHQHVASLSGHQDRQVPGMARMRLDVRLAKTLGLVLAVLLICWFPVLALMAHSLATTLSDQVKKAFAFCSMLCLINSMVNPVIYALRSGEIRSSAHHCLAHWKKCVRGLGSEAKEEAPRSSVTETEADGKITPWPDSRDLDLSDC
T2 sequence (P21554 whole entry): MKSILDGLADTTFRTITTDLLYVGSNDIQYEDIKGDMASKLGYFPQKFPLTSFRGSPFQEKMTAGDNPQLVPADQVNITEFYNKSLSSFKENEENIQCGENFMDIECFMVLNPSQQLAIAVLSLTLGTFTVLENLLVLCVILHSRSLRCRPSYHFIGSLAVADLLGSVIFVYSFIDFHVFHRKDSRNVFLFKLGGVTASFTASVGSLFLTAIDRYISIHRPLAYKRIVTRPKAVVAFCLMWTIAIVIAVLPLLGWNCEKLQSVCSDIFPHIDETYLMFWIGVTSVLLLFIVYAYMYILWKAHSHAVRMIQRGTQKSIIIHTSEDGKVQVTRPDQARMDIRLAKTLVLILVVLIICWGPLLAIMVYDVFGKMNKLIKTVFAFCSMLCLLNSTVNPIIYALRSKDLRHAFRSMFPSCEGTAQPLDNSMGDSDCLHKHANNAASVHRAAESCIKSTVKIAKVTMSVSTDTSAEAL

As for `C[C@](CC(N)=O)(NC(=O)c1ccc(C2CC2)c(-c2ccc(F)nc2)c1)C1CC1` [Example 52, N-[(2R)-4-Amino-2-cyclopropyl-4-oxobutan-2-yl]-4-cyclopropyl-3-(6-fluoropyridin-3-yl)benzamide], the EC50 was 9.76 nM in assay [1] and greater than 10000 nM in assay [2].

With `C[C@@](CC(N)=O)(NC(=O)c1ccc(C2CC2)c(-c2ccc(F)nc2)c1)C1CC1` [Example 53, N-[(2S)-4-Amino-2-cyclopropyl-4-oxobutan-2-yl]-4-cyclopropyl-3-(6-fluoropyridin-3-yl)benzamide], the EC50 is 184 nM in assay [1] and greater than 10000 nM in assay [2].

With `C[C@@](CC(N)=O)(NC(=O)c1ccc(C2CC2)c(OCCF)c1)C1CC1` [Example 54, N-[(2S)-4-Amino-2-cyclopropyl-4-oxobutan-2-yl]-4-cyclopropyl-3-(2-fluoroethoxy)benzamide], the EC50 in assay [1] was 231 nM; in assay [2], greater than 10000 nM.

Consider `Cn1nccc1-c1cc(C(=O)N2CC(F)(F)C[C@H]2C(N)=O)ccc1C1CC1` [Example 55, 1-[4-Cyclopropyl-3-(1-methyl-1H-pyrazol-5-yl)benzoyl]-4,4-difluoro-L-prolinamide], for which the concentration for a half-maximal effect (EC50) is 1910 nM in assay [1] (setting [3]) and greater than 10000 nM in assay [2].

As to `CNC(=O)[C@@H](NC(=O)c1ccc(C2CC2)c(-c2ccnn2C)c1)C(C)(C)C` [Example 56, 4-Cyclopropyl-N-[(2S)-3,3-dimethyl-1-(methylamino)-1-oxobutan-2-yl]-3-(1-methyl-1H-pyrazol-5-yl)benzamide], the concentration for a half-maximal effect (EC50) in assay [1] (setting [3]) is 140 nM; in assay [2], greater than 10000 nM.

With `NC(=O)[C@@H]1CC(F)(F)CN1C(=O)c1ccc(C2CC2)c(-c2ccc(F)nc2)c1` [Example 57, 1-[4-Cyclopropyl-3-(6-fluoropyridin-3-yl)benzoyl]-4,4-difluoro-L-prolinamide], the EC50 in assay [1] (setting [3]) was 274 nM; in assay [2], greater than 10000 nM.

Consider `CNC(=O)[C@@H](NC(=O)c1ccc(C2CC2)c(-c2ccc(F)nc2)c1)C(C)(C)C` [Example 58, 4-Cyclopropyl-N-[(2S)-3,3-dimethyl-1-(methylamino)-1-oxobutan-2-yl]-3-(6-fluoropyridin-3-yl)benzamide], for which the results for the EC50 in assay [1] and in assay [2] were 11.8 nM and 388 nM, respectively.

With `Cc1nc([C@](C)(CC2CC2)NC(=O)c2ccc(C3CC3)c(-c3ccnn3C)c2)no1` [Example 59, 4-Cyclopropyl-N-[(2S)-1-cyclopropyl-2-(5-methyl-1,2,4-oxadiazol-3-yl)propan-2-yl]-3-(1-methyl-1H-pyrazol-5-yl)benzamide], the figures for the EC50 in assay [1] (setting [3]) and in assay [2] were 282 nM and greater than 10000 nM, respectively.

For `Cc1nc([C@](C)(CC2CC2)NC(=O)c2ccc(C3CC3)c(-c3ccc(F)nc3)c2)no1` [Example 60, 4-Cyclopropyl-N-[(2S)-1-cyclopropyl-2-(5-methyl-1,2,4-oxadiazol-3-yl)propan-2-yl]-3-(6-fluoropyridin-3-yl)benzamide], the EC50 in assay [1] is 98.4 nM; in assay [2], greater than 10000 nM.

Take `C[C@](CC(N)=O)(NC(=O)c1ccc(C2CC2)c(N2CCC(F)(F)C2)c1)C1CC1` [Example 61, N-[(2R)-4-Amino-2-cyclopropyl-4-oxobutan-2-yl]-4-cyclopropyl-3-(3,3-difluoropyrrolidin-1-yl)benzamide]: the EC50 in assay [1] stood at 2.5 nM; in assay [2], 1790 nM.

Take `C[C@@](CC(N)=O)(NC(=O)c1ccc(C2CC2)c(N2CCC(F)(F)C2)c1)C1CC1` [Example 62, N-[(2S)-4-Amino-2-cyclopropyl-4-oxobutan-2-yl]-4-cyclopropyl-3-(3,3-difluoropyrrolidin-1-yl)benzamide]: the results for the half-maximal effective concentration (EC50) in assay [1] and in assay [2] were 25.9 nM and greater than 10000 nM, respectively.

`Cc1nc([C@@](C)(CC2CC2)NC(=O)c2ccc(C3CC3)c(N3CCC(F)(F)C3)c2)no1` [Example 63, 4-Cyclopropyl-N-[(2R)-1-cyclopropyl-2-(5-methyl-1,2,4-oxadiazol-3-yl)propan-2-yl]-3-(3,3-difluoropyrrolidin-1-yl)benzamide]: the EC50 in assay [1] is 3.83 nM; in assay [2], 872 nM.

Take `Cc1nc([C@](C)(CC2CC2)NC(=O)c2ccc(C3CC3)c(N3CCC(F)(F)C3)c2)no1` [Example 64, 4-Cyclopropyl-N-[(2S)-1-cyclopropyl-2-(5-methyl-1,2,4-oxadiazol-3-yl)propan-2-yl]-3-(3,3-difluoropyrrolidin-1-yl)benzamide]: the EC50 is 1.08 nM in assay [1] and greater than 10000 nM in assay [2].

Turning to `NC(=O)[C@@H]1CC(F)(F)CN1C(=O)c1ccc(C2CC2)c(N2CCC(F)(F)C2)c1` [Example 65, 1-[4-Cyclopropyl-3-(3,3-difluoropyrrolidin-1-yl)benzoyl]-4,4-difluoro-L-prolinamide], the EC50 is 18.1 nM in assay [1] and greater than 10000 nM in assay [2].

Turning to `CNC(=O)[C@@H](NC(=O)c1ccc(C2CC2)c(N2CCC(F)(F)C2)c1)C(C)(C)C` [Example 66, 4-Cyclopropyl-3-(3,3-difluoropyrrolidin-1-yl)-N-[(2S)-3,3-dimethyl-1-(methylamino)-1-oxobutan-2-yl]benzamide], the EC50 in assay [1] was determined as 0.48 nM; in assay [2], 42.1 nM.

As for `Cc1nc(C(NC(=O)c2ccc(C3CC3)c(OCC(F)(F)F)c2)C2(C)COC2)no1` (stereo not drawn) [Example 67, 4-Cyclopropyl-N-[(5-methyl-1,2,4-oxadiazol-3-yl)(3-methyloxetan-3-yl)methyl]-3-(2,2,2-trifluoroethoxy)benzamide], the EC50 in assay [1] (setting [3]) was 263 nM; in assay [2], greater than 10000 nM.

As for `Cc1nc(C(NC(=O)c2ccc(C3CC3)c(OC(C)C)c2)C2(C)COC2)no1` (stereo not drawn) [Example 68, 4-Cyclopropyl-N-[(5-methyl-1,2,4-oxadiazol-3-yl)(3-methyloxetan-3-yl)methyl]-3-[(propan-2-yl)oxy]benzamide], the EC50 was 264 nM in assay [1] (setting [3]) and greater than 10000 nM in assay [2].

With `CC1(C(CC(N)=O)NC(=O)c2ccc(C3CC3)c(OCC(F)(F)F)c2)COC1` (stereo not drawn) [Example 69, N-[3-Amino-1-(3-methyloxetan-3-yl)-3-oxopropyl]-4-cyclopropyl-3-(2,2,2-trifluoroethoxy)benzamide], the EC50 in assay [1] (setting [3]) was 1180 nM; in assay [2] it was greater than 10000 nM.
